According to patent publication US10428080B2, “TBK/IKK inhibitor compounds and uses thereof” (Merck Patent GmbH, priority 2015, dated 2019):
Structures can show the parent of a compound that is named as a salt. Where two headings read alike, the source gives them in different places.

Tests used:
[1] = biological target: T1, TBK1 (Homo sapiens, UniProt Q9UHD2); assay: TBK Biochemical Assay; conditions: read-out: TBK1 IC50
T1 sequence (Q9UHD2 1-729): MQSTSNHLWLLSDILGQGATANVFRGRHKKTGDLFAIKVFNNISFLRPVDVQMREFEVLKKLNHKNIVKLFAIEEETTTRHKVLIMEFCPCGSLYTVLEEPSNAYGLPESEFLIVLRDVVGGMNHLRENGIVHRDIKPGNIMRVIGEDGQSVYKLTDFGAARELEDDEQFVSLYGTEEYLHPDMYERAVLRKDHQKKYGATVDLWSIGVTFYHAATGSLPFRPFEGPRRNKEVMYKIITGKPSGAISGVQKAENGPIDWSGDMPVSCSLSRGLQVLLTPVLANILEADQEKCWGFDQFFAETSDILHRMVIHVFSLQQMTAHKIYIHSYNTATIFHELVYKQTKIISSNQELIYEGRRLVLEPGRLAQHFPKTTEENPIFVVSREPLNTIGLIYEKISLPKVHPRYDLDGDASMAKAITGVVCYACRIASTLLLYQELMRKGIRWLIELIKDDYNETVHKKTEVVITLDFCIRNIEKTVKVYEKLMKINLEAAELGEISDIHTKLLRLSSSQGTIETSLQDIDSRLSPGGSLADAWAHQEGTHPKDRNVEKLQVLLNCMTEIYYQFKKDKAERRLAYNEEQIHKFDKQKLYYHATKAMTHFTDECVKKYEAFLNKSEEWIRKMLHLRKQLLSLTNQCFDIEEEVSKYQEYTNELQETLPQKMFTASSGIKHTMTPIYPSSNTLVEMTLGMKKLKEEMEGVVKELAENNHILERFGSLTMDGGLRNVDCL
Procedure, shortened: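 Caliper LabChip mobility-shift readout of substrate and product after 90 min of TBK1 reaction at 25° C and stop-buffer addition. Compounds tested in 1:4 serial dilution over 10 points from 30 uM final at 1% DMSO; staurosporine 10 uM final defines full inhibition.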

[2] = biological target: T2, IKKε (Homo sapiens, UniProt Q14164); assay: IKKe Biochemical Assay; conditions: read-out: IKKε IC50
T2 sequence (Q14164 1-716): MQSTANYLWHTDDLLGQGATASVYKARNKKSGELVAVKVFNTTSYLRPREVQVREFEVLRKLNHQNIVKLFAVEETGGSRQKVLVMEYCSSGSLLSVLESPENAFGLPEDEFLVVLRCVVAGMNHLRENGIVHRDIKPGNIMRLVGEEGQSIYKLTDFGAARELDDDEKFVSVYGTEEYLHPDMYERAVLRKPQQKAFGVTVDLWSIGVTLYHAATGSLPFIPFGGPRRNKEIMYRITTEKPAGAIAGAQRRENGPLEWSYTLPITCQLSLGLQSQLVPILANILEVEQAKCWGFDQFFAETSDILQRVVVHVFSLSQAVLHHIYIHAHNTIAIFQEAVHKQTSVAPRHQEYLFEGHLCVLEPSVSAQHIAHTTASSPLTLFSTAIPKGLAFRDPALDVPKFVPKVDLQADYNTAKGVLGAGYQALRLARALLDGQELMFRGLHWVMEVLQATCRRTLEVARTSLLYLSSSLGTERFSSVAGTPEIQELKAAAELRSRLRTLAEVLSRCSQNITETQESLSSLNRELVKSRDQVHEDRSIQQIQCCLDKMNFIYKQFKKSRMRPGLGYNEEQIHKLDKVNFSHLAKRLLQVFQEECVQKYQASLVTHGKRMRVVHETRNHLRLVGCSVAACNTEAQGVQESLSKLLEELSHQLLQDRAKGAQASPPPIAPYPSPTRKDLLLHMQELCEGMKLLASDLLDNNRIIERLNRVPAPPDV
Procedure, shortened: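 Activity was measured as mobility-shift separation of phosphorylated from unphosphorylated substrate on a LabChip EZ Reader. Compound was titrated from 30 uM final in 10 points, 1:4 steps, with 1% DMSO, and enzyme plus substrate reacted 90 min at 25° C before stop buffer. Control wells held 10 uM staurosporine.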

[3] = tested on: phosphorylation of the IRF-3 protein in MDA-MB-468 cells; assay: pIRF3 immunocytochemistry cell based assay; conditions: Homo sapiens
Procedure, shortened: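 After 2 h stimulation with Poly(I:C) (10 ug/ml), following 1 h compound pre-treatment (10-point, 3-fold dilution, top 10 uM), MDA-MB-468 cells were fixed and stained with anti-pIRF3 antibody. pIRF3 fluorescence was normalized to PI staining or cell count on an Acumen cytometer. IC50 curves were derived from this.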

[4] = MDA-MB-468 cells, Poly(I:C) stimulation, read-out: pIRF3 IC50
[5] = MDA-MB-468, read-out: pIRF3 IC50

IC50 [1] [nM] | IC50 [2] [nM] | IC50 [3, 4] [nM] | SMILES | IC50 [3, 5] [nM]
< 100 | < 100 | 100 to 1000 | COc1cc(C(=O)NCC2(C)COC2)ccc1-c1cc2nccc(-c3ccc(OC4CCOCC4)c(C#N)c3)c2o1 [Compound 59, 4-{7-[3-Cyano-4-(tetrahydro-pyran-4-yloxy)-phenyl]-furo[3,2-b]pyridin-2-yl}-3-methoxy-N-(3-methyl-oxetan-3-ylmethyl)-benzamide] | –
< 100 | < 100 | 100 to 1000 | CN(C)C(=O)c1ccc(-c2cc3nccc(-c4ccc(OC5CCOCC5F)c(C#N)c4)c3o2)cc1 (stereo not drawn) [Compound 129] | –
< 100 | < 100 | 1000 to 5000 | COc1cc(C(=O)O)ccc1-c1cc2nccc(-c3ccc(OC4CCOCC4)c(C#N)c3)c2o1 [Compound 21] | –
< 100 | < 100 | 100 to 1000 | CCC(CO)(CO)NC(=O)c1ccc(-c2cc3nccc(-c4ccc(OC5CCOCC5)c(C#N)c4)c3o2)c(OC)c1 [Compound 479, N-(1,1-Bis-hydroxymethyl-propyl)-4-{7-[3-cyano-4-(tetrahydro-pyran-4-yloxy)-phenyl]-furo[3,2-b]pyridin-2-yl}-3-methoxy-benzamide] | –
< 100 | < 100 | < 100 | COc1cc(C(=O)N(C)C)ccc1-c1cc2nccc(-c3ccc(OC4CN(C)C4)c(C#N)c3)c2o1 [Compound 484, 4-{7-[3-Cyano-4-(1-methyl-azetidin-3-yloxy)-phenyl]-furo[3,2-b]pyridin-2-yl}-3-methoxy-N,N-dimethyl-benzamide] | –
100 to 1000 | 100 to 1000 | 1000 to 5000 | CN(C)C(=O)c1ccc(-c2cc3nccc(-c4ccc(OC5CC6(COC6)C5)c(C#N)c4)c3o2)cc1 [Compound 177, 4-{7-[3-Cyano-4-(2-oxa-spiro[3.3]hept-6-yloxy)-phenyl]-furo[3,2-b]pyridin-2-yl}-N,N-dimethyl-benzamide] | –
< 100 | < 100 | 100 to 1000 | COc1cc(C(=O)N(C)C)cnc1-c1cc2nccc(-c3ccc(N4CCC(F)C4)c(C#N)n3)c2o1 (stereo not drawn) [Compound 488, 2-{7-[6-Cyano-6-5-(3-fluoro-pyrrolidin-1-yl)-pyridin-3-yl]-furo[3,2-b]pyridin-2-yl}-5-methoxy-N,N-dimethyl-nicotinamide] | –
100 to 1000 | < 100 | 100 to 1000 | N#Cc1cc(-c2ccnc3cc(-c4ccc(C(=O)O)cc4)oc23)ccc1OC1CCCOC1 (stereo not drawn) [Compound 166] | –
< 100 | < 100 | < 100 | COc1cc(C(=O)N2CC3COCC3C2)ccc1-c1cc2nccc(-c3ccc(NC4CCOCC4)c(C#N)c3)c2o1 (stereo not drawn) [Compound 513] | –
< 100 | < 100 | 100 to 1000 | COc1cc(C(=O)NC(C)(C)CN(C)C)ccc1-c1cc2nccc(-c3ccc(NC4C5COCC54)c(C#N)c3)c2o1 (stereo not drawn) [Compound 502, N-(2-dimethylamino-1,1-dimethyl-ethyl)-4-{7-[3-cyano-4-(3-oxa-bicyclo[3.1.0]hex-6-ylamino)-phenyl]-furo[3,2-b]pyridin-2-yl}-3-methoxy-benzamide] | –
< 100 | < 100 | < 100 | COc1cc(C(=O)N(C)C)ccc1-c1cc2nccc(-c3ccc(OC4CCCNC4)c(C#N)c3)c2o1 (stereo not drawn) [Compound 140, 4-{7-[3-Cyano-4-(piperidin-3-yloxy)-phenyl]-furo[3,2-b]pyridin-2-yl}-3-methoxy-N,N-dimethyl-benzamide Hydrochloride] | –
< 100 | < 100 | 100 to 1000 | COc1cc(C(=O)N(C)C)cnc1-c1cc2ncc(F)c(-c3ccc(OC4CCOCC4)c(C#N)c3)c2o1 [Compound 317, 6-(7-(3-cyano-4-(tetrahydro-2H-pyran-4-yloxy)phenyl)-6-fluorofuro[3,2-b]pyridin-2-yl)-5-methoxy-N,N-dimethylnicotinamide] | –
< 100 | < 100 | 100 to 1000 | COc1cc(C(=O)N2CC3CCC2CO3)ncc1-c1cc2nccc(-c3ccc(OC4CCOCC4)c(C#N)c3)c2o1 (stereo not drawn) [Compound 413, 5-[2-[4-methoxy-6-([2-oxa-5-azabicyclo[2.2.2]octan-5-yl]carbonyl)pyridin-3-yl]furo[3,2-b]pyridin-7-yl]-2-(oxan-4-yloxy)benzonitrile hydrochloride] | –
< 100 | < 100 | 100 to 1000 | COc1cc(C(=O)N2CCCCC2)cnc1-c1cc2nccc(-c3ccc(N4CC[C@@H](F)C4)c(C#N)c3)c2o1 [Compound 410, 2-[(3R)-3-fluoropyrrolidin-1-yl]-5-(2-[3-methoxy-5-[(piperidin-1-yl)carbonyl]pyridin-2-yl]furo[3,2-b]pyridin-7-yl)benzonitrile] | –
< 100 | < 100 | < 100 | COc1cc(C(=O)N2C[C@@H]3C[C@H]2CN3C)ccc1-c1cc2nccc(-c3ccc(OC4CCOCC4)c(C#N)c3)c2o1 [Compound 508] | –
< 100 | < 100 | 100 to 1000 | COc1cc(C(=O)N(C)C)ccc1-c1cc2nccc(-c3ccc(OC4CCOC4)c(C#N)c3)c2o1 (stereo not drawn) [Compound 90, 4-{7-[3-Cyano-4-(tetrahydro-furan-3-yloxy)-phenyl]-furo[3,2-b]pyridin-2-yl}-3-methoxy-N,N-dimethyl-benzamide] | –
< 100 | < 100 | 100 to 1000 | COc1cc(C(=O)N[C@H]2CCCC[C@H]2O)ccc1-c1cc2nccc(-c3ccc(OC4CCOCC4)c(C#N)c3)c2o1 [Compound 476, 4-{7-[3-Cyano-4-(tetrahydro-pyran-4-yloxy)-phenyl]-furo[3,2-b]pyridin-2-yl}-N-((1S,2R)-2-hydroxy-cyclohexyl)-3-methoxy-benzamide] | –

SMILES | IC50 [1] [nM] | IC50 [2] [nM] | IC50 [3, 4] [nM] | IC50 [3, 5] [nM]
COc1cc(C(=O)N(C)C)cnc1-c1cc2nccc(-c3ccc(NC4CCOCC4)c(C#N)n3)c2o1 [Compound 315, 6-(7-[6-cyano-5-[(oxan-4-yl)amino]pyridin-2-yl]furo[3,2-b]pyridin-2-yl)-5-methoxy-N,N-dimethylpyridine-3-carboxamide hydrochloride] | < 100 | < 100 | – | 100 to 1000
COc1cc(C(=O)N2C3CCCC2CC3)ccc1-c1cc2nccc(-c3ccc(NC4CCOCC4)c(C#N)c3)c2o1 [Compound 519] | < 100 | < 100 | 100 to 1000 | –
COc1cc(C(=O)NC2CN3CCC2CC3)cnc1-c1cc2nccc(-c3ccc(N4CCC(F)C4)c(C#N)c3)c2o1 (stereo not drawn) [Compound 438, N-[1-azabicyclo[2.2.2]octan-3-yl]-6-[7-[3-cyano-4-(3-fluoropyrrolidin-1-yl)phenyl]furo[3,2-b]pyridin-2-yl]-5-methoxypyridine-3-carboxamide] | < 100 | < 100 | 100 to 1000 | –
COc1cc(C(=O)N(C)CCO)cnc1-c1cc2nccc(-c3ccc(OC4CCOCC4)c(C#N)n3)c2o1 [Compound 327, 6-[7-[6-cyano-5-(oxan-4-yloxy)pyridin-2-yl]furo[3,2-b]pyridin-2-yl]-N-(2-hydroxyethyl)-5-methoxy-N-methylpyridine-3-carboxamide hydrochloride] | < 100 | < 100 | – | < 100
